In patent publication US4468511A, “C-20- And C-23-Modified macrolide derivatives” (Eli Lilly and Company, priority 1983, dated 1984):
≈ marks a conversion by molar mass, not a printed value. Like-named read-outs stand apart in the source and are kept apart here.

What was measured:
[1] = system: Staphylococcus aureus V41; assay: MIC, standard agar-dilution assay; format: cell-based; settings: Staphylococcus aureus, V41
Protocol: (§1) Certain of the derivatives are active against some gram-negative bacteria, such as Pasteurella species. The MIC's in Table II were determined by standard agar-dilution assays. The MIC's in Table III were obtained using a conventional broth-dilution microtiter test.

[2] = system: Streptococcus pyogenes C203; assay: MIC, standard agar-dilution assay; format: cell-based
Protocol: as §1

[3] = system: Klebsiella pneumoniae KAE; assay: MIC, standard agar-dilution assay; format: cell-based
Protocol: as §1

[4] = system: Streptococcus Group D X66; assay: MIC, standard agar-dilution assay; format: cell-based
Protocol: as §1

Escherichia coli TEM = assay: MIC, standard agar-dilution assay; format: cell-based; settings: agar-dilution; Escherichia coli TEM; read-out: MIC
Protocol: as §1

[5] = system: Staphylococcus aureus X1.1; assay: MIC, standard agar-dilution assay; format: cell-based; settings: Staphylococcus aureus, X1.1
Protocol: as §1

[6] = system: Klebsiella pneumoniae X26; assay: MIC, standard agar-dilution assay; format: cell-based
Protocol: as §1

[7] = system: Streptococcus pyogenes 9960; assay: MIC, standard agar-dilution assay; format: cell-based
Protocol: as §1

Escherichia coli EC14 = assay: MIC, standard agar-dilution assay; format: cell-based
Protocol: as §1

[8] = system: Streptococcus pneumoniae Park I; assay: MIC, standard agar-dilution assay; format: cell-based; settings: agar-dilution; Streptococcus pneumoniae Park I; read-out: MIC
Protocol: as §1

Streptococcus sp. 80 = assay: MIC, conventional broth-dilution microtiter test; format: cell-based
Protocol: as §1

Mycoplasma gallisepticum = assay: MIC, conventional broth-dilution microtiter test; format: cell-based; settings: Mycoplasmoides gallisepticum
Protocol: as §1

[9] = system: Mycoplasma gallisepticum 41313; assay: MIC, conventional broth-dilution microtiter test; format: cell-based; settings: Mycoplasmoides gallisepticum
Protocol: as §1

Mycoplasma synoviae = assay: MIC, conventional broth-dilution microtiter test; format: cell-based; settings: Mycoplasmopsis synoviae
Protocol: as §1

[10] = system: Pasteurella multocida 17E; assay: MIC, conventional broth-dilution microtiter test; format: cell-based
Protocol: as §1

Staphylococcus aureus = assay: MIC, conventional broth-dilution microtiter test; format: cell-based; settings: broth-dilution microtiter, read-out: MIC
Protocol: as §1

[11] = system: Mycoplasma gallisepticum 34159; assay: MIC, conventional broth-dilution microtiter test; format: cell-based; settings: Mycoplasmoides gallisepticum
Protocol: as §1

[12] = system: Pasteurella multocida 22A; assay: MIC, conventional broth-dilution microtiter test; format: cell-based
Protocol: as §1

[13] = system: Pasteurella hemolytica 41D; assay: MIC, conventional broth-dilution microtiter test; format: cell-based; settings: broth-dilution microtiter; Pasteurella hemolytica 41D; read-out: MIC
Protocol: as §1

[14] = system: Pasteurella multocida 40G; assay: MIC, conventional broth-dilution microtiter test; format: cell-based
Protocol: as §1

[15] = system: Pasteurella hemolytica 22C; assay: MIC, conventional broth-dilution microtiter test; format: cell-based; settings: broth-dilution microtiter; Pasteurella hemolytica 22C; read-out: MIC
Protocol: as §1

Mycoplasma hyorhinis = assay: MIC, conventional broth-dilution microtiter test; format: cell-based; settings: broth-dilution microtiter; Mycoplasma hyorhinis; read-out: MIC
Protocol: as §1

[16] = system: Pasteurella hemolytica 23C; assay: MIC, conventional broth-dilution microtiter test; format: cell-based; settings: broth-dilution microtiter; Pasteurella hemolytica 23C; read-out: MIC
Protocol: as §1

[17] = system: Pasteurella multocida 60A; assay: MIC, conventional broth-dilution microtiter test; format: cell-based
Protocol: as §1

[18] = system: Pasteurella multocida 68C; assay: MIC, conventional broth-dilution microtiter test; format: cell-based
Protocol: as §1

[19] = system: Streptococcus pyogenes C203; assay: Protection of mice experimentally infected with S. pyogenes C203; format: in vivo; settings: mg/kg × 2, doses given 1 and 4 hours postinfection
Protocol: Some of the derivatives of this invention have shown in vivo antimicrobial activity against experimentally-induced infections in laboratory animals. When two doses of test compound were administered to mice experimentally infected with S. pyogenes C203, the activity observed was measured as an ED50 value [effective dose in mg/kg to protect 50% of the test animals: see Warren Wick, et al., J. Bacteriol. 81, 233-235 (1961)].

[20] = system: Haemophilus influenzae 76; assay: MIC, standard agar-dilution assay; format: cell-based; settings: agar-dilution; Haemophilus influenzae 76, Ampicillin-resistant strain; read-out: MIC
Protocol: (§2) The MIC's in Table II were determined by standard agar-dilution assays. The MIC's in Table III were obtained using a conventional broth-dilution microtiter test.

[21] = system: Haemophilus influenzae C.L.; assay: MIC, standard agar-dilution assay; format: cell-based
Protocol: as §2

[22] = system: Staphylococcus epidermidis EPI2; assay: MIC, standard agar-dilution assay; format: cell-based
Protocol: as §2

[23] = system: Staphylococcus aureus X400; assay: MIC, standard agar-dilution assay; format: cell-based; settings: Staphylococcus aureus, X400
Protocol: as §2

[24] = system: Staphylococcus epidermidis EPI1; assay: microbe, parasite or virus in culture; format: cell-based; settings: Staphylococcus epidermidis, EPI1
Protocol: as §2

[25] = system: Staphylococcus aureus S13E; assay: microbe, parasite or virus in culture; format: cell-based
Protocol: as §2

[26] = agar-dilution, Klebsiella pneumoniae KAE, read-out: MIC
[27] = agar-dilution, Streptococcus Group D X66, read-out: MIC
[28] = agar-dilution, Klebsiella pneumoniae X26, read-out: MIC
[29] = agar-dilution, Escherichia coli EC14, read-out: MIC
[30] = broth-dilution microtiter, Streptococcus sp. 80, read-out: MIC
[31] = broth-dilution microtiter, Mycoplasma gallisepticum, read-out: MIC
[32] = broth-dilution microtiter, Mycoplasma gallisepticum 41313, Resistant strain, read-out: MIC
[33] = broth-dilution microtiter, Mycoplasma gallisepticum 34159, Resistant strain, read-out: MIC
[34] = C203, mice, oral, read-out: ED50 Oral
[35] = C203, sc, mice, subcutaneous, read-out: ED50 Subcutaneous
[36] = Staphylococcus epidermidis, EPI2
[37] = agar-dilution, Streptococcus pyogenes C203, read-out: MIC
[38] = agar-dilution, Streptococcus 9960, read-out: MIC
[39] = broth-dilution microtiter, Mycoplasma synoviae, read-out: MIC
[40] = broth-dilution microtiter, Pasteurella multocida 60A, Avian isolate, read-out: MIC

Structure (SMILES)	MIC [1] [µg/mL]	MIC [3, 26] [µg/mL]	MIC [4, 27] [µg/mL]	MIC (Escherichia coli TEM) [µg/mL]	MIC [5] [µg/mL]	MIC [6, 28] [µg/mL]	MIC (Escherichia coli EC14; [29]) [µg/mL]	MIC [8] [µg/mL]	MIC (Streptococcus sp. 80; [30]) [µg/mL]	MIC (Mycoplasma gallisepticum; [31]) [µg/mL]	MIC [9, 32] [µg/mL]	MIC (Staphylococcus aureus) [µg/mL]	MIC [13] [µg/mL]	MIC [15] [µg/mL]	MIC (Mycoplasma hyorhinis) [µg/mL]	MIC [16] [µg/mL]	MIC [20] [µg/mL]	MIC [23] [µg/mL]	MIC [24] [µg/mL]	MIC [25] [µg/mL]	also measured
CCC1OC(=O)CC(O)C(C)C(OC2OC(C)C(O)C(N(C)C)C2O)C(CCOc2ccccc2)CC(C)C(=O)C=CC(C)=CC1COc1ccccc1 (stereo not drawn) [Compound 32, 20,23-Di-O-phenyl-20-dihydro-OMT]	1 (≈ 1.33 µM)	> 128	0.5 (≈ 0.665 µM)	> 128	1 (≈ 1.33 µM)	> 128	> 128	0.25 (≈ 0.332 µM)	0.048 (≈ 0.0638 µM)	0.78 (≈ 1.04 µM)	25 (≈ 33.2 µM)	0.39 (≈ 0.519 µM)	12.5 (≈ 16.6 µM)	12.5 (≈ 16.6 µM)	50 (≈ 66.5 µM)	12.5 (≈ 16.6 µM)	> 128	2 (≈ 2.66 µM)	1 (≈ 1.33 µM)	1 (≈ 1.33 µM)	MIC ([2]; Streptococcus pyogenes, C203): 2 µg/mL (≈ 2.66 µM); MIC [7]; 9960: 2 µg/mL (≈ 2.66 µM); MIC (Mycoplasma synoviae): 6.25 µg/mL (≈ 8.31 µM); MIC ([10]; Pasteurella multocida, 17E): 3.12 µg/mL (≈ 4.15 µM); MIC [11, 33]: 6.25 µg/mL (≈ 8.31 µM); MIC ([12]; Pasteurella multocida, 22A): 3.12 µg/mL (≈ 4.15 µM); MIC ([14]; Pasteurella multocida, 40G): 3.12 µg/mL (≈ 4.15 µM); MIC ([17]; Pasteurella multocida, 60A): 3.12 µg/mL (≈ 4.15 µM); MIC ([18]; Pasteurella multocida, 68C): 3.12 µg/mL (≈ 4.15 µM); ED50 [19, 34]: > 50 mg/kg; ED50 [19, 35]: > 10 mg/kg; MIC ([21]; agar-dilution, Haemophilus influenzae C.L., Ampicillin-sensitive strain, read-out: MIC): > 128 µg/mL; MIC [22, 36]: 1 µg/mL (≈ 1.33 µM)
CCC1CC(C)C(=O)C=CC(C)=CC(COc2cccc(OC)c2OC)C(CC)OC(=O)CC(O)C(C)C1OC1OC(C)C(O)C(N(C)C)C1O (stereo not drawn) [Compound 47, 23-O-(2,3-Dimethoxyphenyl)-20-deoxy-20-dihydro-OMT]	0.25 (≈ 0.347 µM)	> 128	0.25 (≈ 0.347 µM)	128 (≈ 178 µM)	0.25 (≈ 0.347 µM)	–	> 128	–	–	–	–	3.12 (≈ 4.33 µM)	25 (≈ 34.7 µM)	25 (≈ 34.7 µM)	25 (≈ 34.7 µM)	25 (≈ 34.7 µM)	16 (≈ 22.2 µM)	0.25 (≈ 0.347 µM)	0.25 (≈ 0.347 µM)	0.25 (≈ 0.347 µM)	MIC [2, 37]: 0.25 µg/mL (≈ 0.347 µM); MIC ([6]; Klebsiella pneumoniae, X26): 4 µg/mL (≈ 5.56 µM); MIC [7, 38]: 0.25 µg/mL (≈ 0.347 µM); MIC (Streptococcus sp. 80; Streptococcus, SP.80): 1.56 µg/mL (≈ 2.17 µM); MIC (Mycoplasma gallisepticum): 1.56 µg/mL (≈ 2.17 µM); MIC [9]; 41313: 50 µg/mL (≈ 69.5 µM); MIC (Mycoplasma synoviae; [39]): 6.25 µg/mL (≈ 8.68 µM); MIC ([10]; broth-dilution microtiter, Pasteurella multocida 17E, Bovine isolate, read-out: MIC): 25 µg/mL (≈ 34.7 µM); MIC [11]; 34159: 50 µg/mL (≈ 69.5 µM); MIC ([12]; Pasteurella multocida, 22A): 50 µg/mL (≈ 69.5 µM); MIC ([14]; Pasteurella multocida, 40G): 12.5 µg/mL (≈ 17.4 µM); MIC [17, 40]: 25 µg/mL (≈ 34.7 µM); MIC ([18]; Pasteurella multocida, 68C): 12.5 µg/mL (≈ 17.4 µM); ED50 [19, 34]: > 50 mg/kg; ED50 [19, 35]: > 10 mg/kg; MIC ([21]; Haemophilus influenzae): 32 µg/mL (≈ 44.4 µM); MIC [22, 36]: 0.25 µg/mL (≈ 0.347 µM)
CCC1OC(=O)CC(O)C(C)C(OC2OC(C)C(O)C(N(C)C)C2O)C(CCO)CC(C)C(=O)C=CC(C)=CC1CN1CCCCCCC1 (stereo not drawn) [Compound 58, 20-Dihydro-23-Octahydroazocin-1-yl-23-deoxy-OMT]	0.5 (≈ 0.719 µM)	–	–	8 (≈ 11.5 µM)	0.5 (≈ 0.719 µM)	2 (≈ 2.88 µM)	–	0.25 (≈ 0.36 µM)	1.56 (≈ 2.24 µM)	0.39 (≈ 0.561 µM)	50 (≈ 71.9 µM)	0.78 (≈ 1.12 µM)	0.39 (≈ 0.561 µM)	0.78 (≈ 1.12 µM)	25 (≈ 36 µM)	0.78 (≈ 1.12 µM)	4 (≈ 5.76 µM)	1 (≈ 1.44 µM)	0.5 (≈ 0.719 µM)	0.5 (≈ 0.719 µM)	MIC [2, 37]: 0.25 µg/mL (≈ 0.36 µM); MIC ([3]; Klebsiella pneumoniae): 64 µg/mL (≈ 92.1 µM); MIC [4]: 2 µg/mL (≈ 2.88 µM); MIC [7, 38]: 4 µg/mL (≈ 5.76 µM); MIC (Escherichia coli EC14; Escherichia coli, EC14): 64 µg/mL (≈ 92.1 µM); MIC (Mycoplasma synoviae; [39]): 6.25 µg/mL (≈ 8.99 µM); MIC ([10]; Pasteurella multocida, 17E): 3.12 µg/mL (≈ 4.49 µM); MIC [11, 33]: > 50 µg/mL; MIC ([12]; broth-dilution microtiter, Pasteurella multocida 22A, read-out: MIC): 1.56 µg/mL (≈ 2.24 µM); MIC ([14]; broth-dilution microtiter, Pasteurella multocida 40G, read-out: MIC): 0.39 µg/mL (≈ 0.561 µM); MIC [17, 40]: 0.78 µg/mL (≈ 1.12 µM); MIC ([18]; broth-dilution microtiter, Pasteurella multocida 68C, read-out: MIC): 1.56 µg/mL (≈ 2.24 µM); MIC ([21]; Haemophilus influenzae): 2 µg/mL (≈ 2.88 µM); MIC ([22]; agar-dilution, Staphylococcus epidermidis EPI2, read-out: MIC): 0.25 µg/mL (≈ 0.36 µM)
